Test results as given in patent US20240279236A1, “COMPOUNDS AND METHODS OF TREATING TUBERCULOSIS” (Fimbrion Therapeutics, Inc., priority 2021, published 2024).

tested on: WT Mtb Erdman strain; experiment: Microplate Alamar Blue Assay (MABA), Mtb growth inhibition; format: cell-based, Mycobacterium tuberculosis; details: Mycobacterium tuberculosis, ERDMAN, 168 h, Middlebrook 7H9 media, 7 days at 37° C. in 5% CO2

SMILES | IC50 [nM]
Cc1cc2c(NCCCc3ccc(-c4ccc(OC(F)(F)F)cc4)cc3)nc(-c3ncon3)nc2s1 [Example 446, 6-methyl-2-(1,2,4-oxadiazol-3-yl)-N-(3-(4′-(trifluoromethoxy)-[1,1′-biphenyl]-4-yl)propyl)thieno[2,3-d]pyrimidin-4-amine] | 96
Cc1cc2c(NCCCc3ccc(-c4ccc(OC(F)(F)F)cc4)cc3)nc(-c3ccoc3C)nc2s1 [Example 456, 6-methyl-2-(2-methylfuran-3-yl)-N-(3-(4′-(trifluoromethoxy)-[1,1′-biphenyl]-4-yl)propyl)thieno[2,3-d]pyrimidin-4-amine] | > 10000
Cc1cc2c(NCCCc3ccc(F)cc3)nc(C(F)(F)F)nc2s1 [Example 185, N-(3-(4-fluorophenyl)propyl)-6-methyl-2-(trifluoromethyl) thieno[2,3-d] pyrimidin-4-amine] | 2300
Cc1nc2c(NCCCc3ccccc3)nc(-c3ccc(F)cn3)nc2s1 [Example 147, 5-(5-fluoropyridin-2-yl)-2-methyl-N-(3-phenylpropyl)thiazolo [5,4-d]pyrimidin-7-amine] | 2100
Cc1cc2c(NCCCc3ccc(OC4CC4)cc3)nc(C(F)(F)F)nc2s1 [Example 233, N-(3-(4-cyclopropoxyphenyl)propyl)-6-methyl-2-(trifluoromethyl) thieno[2,3-d] pyrimidin-4-amine] | 2100
Cc1cc2c(N[C@H]3C[C@@H]3c3ccc(F)c(F)c3)nc(-c3ccc[nH]3)nc2s1 [Example 566, N-((1S,2R)-2-(3,4-difluorophenyl)cyclopropyl)-6-methyl-2-(1H-pyrrol-2-yl)thieno[2,3-d]pyrimidin-4-amine] | 1600
Cc1cc2c(NCCCc3ccc(-c4ccc(S(C)(=O)=O)cn4)cc3)nc(-c3ccoc3)nc2s1 [Example 398, 2-(furan-3-yl)-N-(3-[4-(5-methanesulfonyl-pyridin-2-yl)phenyl]propyl)-6-methylthieno [2,3-d]pyrimidin-4-amine] | > 460
Cc1cc2c(NCCCc3ccccc3)nc(C(C)Cl)nc2s1 (centres unmarked) [Example 135, 2-(1-chloroethyl)-6-methyl-N-(3-phenylpropyl)thieno [2,3-d]pyrimidin-4-amine] | 230
CCN(C)c1nc(NCCCc2ccc(-c3ccc(OC(F)(F)F)cc3)cc2)c2cc(C)sc2n1 [Example 538, N2-ethyl-N2,6-dimethyl-N4-(3-(4′-(trifluoromethoxy)-[1,1′-biphenyl]-4-yl)propyl)thieno[2,3-d]pyrimidine-2,4-diamine] | 100
Cc1cc2c(NCCCc3ccccc3)nc(-c3cccnn3)nc2s1 [Example 104, 6-methyl-N-(3-phenylpropyl)-2-(pyridazin-3-yl)thieno[2,3-d]pyrimidin-4-amine] | 2000
Cc1cc2c(NCCCc3ccc(-c4cnc(N5CCCC5)cn4)cc3)nc(N3CCCC3)nc2s1 [Example 575, 6-methyl-2-(pyrrolidin-1-yl)-N-(3-(4-(5-(pyrrolidin-1-yl)pyrazin-2-yl)phenyl)propyl)thieno[2,3-d]pyrimidin-4-amine] | 91
Cc1cc2c(NCCCc3ccc(-c4ccc(C#N)cc4)cc3)nc(Cl)nc2s1 [Example 439, 4′-(3-((2-chloro-6-methylthieno[2,3-d]pyrimidin-4-yl)amino)propyl)-[1,1′-biphenyl]-4-carbonitrile] | 93
CCc1nc(NCCc2ccccc2Cl)c2cc(C)sc2n1 [Example 9, N-(2-chlorophenethyl)-2-ethyl-6-methylthieno[2,3-d]pyrimidin-4-amine] | 2000
Cc1cc2c(NCCCc3ccc(-c4ccc(OC5CC5)cc4)cc3)nc(-c3ccoc3)nc2s1 [Example 326, N-(3-(4′-cyclopropoxy-[1,1′-biphenyl]-4-yl)propyl)-2-(furan-3-yl)-6-methylthieno[2,3-d]pyrimidin-4-amine] | 15
Cc1cc2c(NCCCc3ccc(OC(F)(F)F)cc3)nc(-c3cnsc3)nc2s1 [Example 125, 2-(isothiazol-4-yl)-6-methyl-N-(3-(4-(trifluoromethoxy)phenyl)propyl)thieno [2,3-d]pyrimidin-4-amine] | 610
CCc1nc(NCCCc2ccc(-c3ncccn3)cc2)c2cc(C)sc2n1 [Example 372, 2-ethyl-6-methyl-N-(3-(4-(pyrimidin-2-yl)phenyl)propyl) thieno[2,3-d]pyrimidin-4-amine] | 250
COc1cnc(-c2ccc(CCCNc3nc(-c4ccoc4)nc4sc(C)cc34)cc2)cn1 [Example 380, 2-(furan-3-yl)-N-(3-[4-(5-methoxypyrazin-2-yl)phenyl]propyl)-6-methylthieno[2,3-d]pyrimidin-4-amine] | 17
Cc1cc2c(N[C@@H]3C[C@H]3c3ccc(F)c(F)c3)nc(-c3ncccn3)nc2s1 [Example 41, N-((1R,2S)-2-(3,4-difluorophenyl)cyclopropyl)-6-methyl-2-(pyrimidin-2-yl)thieno[2,3-d]pyrimidin-4-amine] | > 10000
COc1ccc(-c2ccc(CCCNc3nc(C(F)(F)F)nc4sc(C)cc34)cc2)cc1 [Example 288, N-(3-(4′-methoxy-[1,1′-biphenyl]-4-yl)propyl)-6-methyl-2-(trifluoromethyl) thieno[2,3-d]pyrimidin-4-amine] | 310

SMILES | IC50 [nM]
CCc1nc(NCCCc2ccc(OC(F)(F)F)c(F)c2)c2cc(C)sc2n1 [Example 252, 2-ethyl-N-(3-(3-fluoro-4-(trifluoromethoxy)phenyl)propyl)-6-methylthieno[2,3-d]pyrimidin-4-amine] | 600
CCc1nc(NCCCc2ccc(-c3ccc(F)c(Cl)c3)cc2)c2cc(C)sc2n1 [Example 309, N-(3-(3′-chloro-4′-fluoro-[1,1′-biphenyl]-4-yl)propyl)-2-ethyl-6-methylthieno[2,3-d]pyrimidin-4-amine] | 100
Cc1cc2c(NCCCc3ccc(-c4ccc(OC(F)(F)F)cc4)c(F)c3)nc(-c3ccoc3)nc2s1 [Example 315, N-(3-(2-fluoro-4′-(trifluoromethoxy)-[1,1′-biphenyl]-4-yl)propyl)-2-(furan-3-yl)-6-methylthieno[2,3-d]pyrimidin-4-amine] | 12
Cc1cc2c(NCCCc3ccccc3)nc(C3CCC3)nc2s1 [Example 106, 2-cyclobutyl-6-methyl-N-(3-phenylpropyl)thieno [2,3-d]pyrimidin-4-amine] | 490
CSc1nc(NCCCc2ccc(-c3ccc(OC(F)(F)F)cc3)cc2)c2nc(C)sc2n1 [Example 292, 2-methyl-5-(methylthio)-N-(3-(4′-(trifluoromethoxy)-[1,1′-biphenyl]-4-yl)propyl)thiazolo [5,4-d]pyrimidin-7-amine] | 16
CNc1nc(NCCCc2ccc(-c3ccc(OC(F)(F)F)cc3)cc2)c2cc(C)sc2n1 [Example 532, N2,6-dimethyl-N4-(3-(4′-(trifluoromethoxy)-[1,1′-biphenyl]-4-yl)propyl)thieno[2,3-d]pyrimidine-2,4-diamine] | 49
Cc1cc2c(N[C@@H]3C[C@H]3c3ccc(F)c(F)c3)nc(-c3ccncn3)nc2s1 [Example 38, N-((1R,2S)-2-(3,4-difluorophenyl)cyclopropyl)-6-methyl-2-(pyrimidin-4-yl)thieno[2,3-d]pyrimidin-4-amine] | 2000
CCc1nc(NCCc2ccccc2C(F)(F)F)c2cc(C)sc2n1 [Example 21, 2-ethyl-6-methyl-N-(2-(trifluoromethyl)phenethyl)thieno[2,3-d]pyrimidin-4-amine] | > 10000
CCc1nc(NCCCc2ccc(-c3ccc(C(F)(F)F)cn3)cc2)c2cc(C)sc2n1 [Example 370, 2-ethyl-6-methyl-N-(3-(4-(5-(trifluoromethyl)pyridin-2-yl)phenyl)propyl)thieno[2,3-d]pyrimidin-4-amine] | 25
Cc1cccc(CCCNc2nc(C(F)(F)F)nc3sc(C)cc23)c1 [Example 228, 6-methyl-N-(3-(m-tolyl)propyl)-2-(trifluoromethyl)thieno [2,3-d]pyrimidin-4-amine] | 1500
CCc1nc(NCCCc2ccc(-c3cccnn3)cc2)c2cc(C)sc2n1 [Example 373, 2-ethyl-6-methyl-N-(3-(4-(pyridazin-3-yl)phenyl)propyl) thieno[2,3-d] pyrimidin-4-amine] | 1000
Cc1cc2c(NCCCc3ccc(-c4ccc(OC(F)(F)F)cc4)cc3)nc(Br)nc2s1 [Example 598, 2-bromo-6-methyl-N-(3-(4′-(trifluoromethoxy)-[1,1′-biphenyl]-4-yl)propyl)thieno[2,3-d]pyrimidin-4-amine] | 81
Cc1cc2c(NCCCc3ccccc3)nc(-c3cnn(C)c3)nc2s1 [Example 133, 6-methyl-2-(1-methyl-1H-pyrazol-4-yl)-N-(3-phenylpropyl)thieno [2,3-d]pyrimidin-4-amine] | 270
Cc1cc2c(NCCCc3ccc(-c4ccc(OC(F)(F)F)cn4)cc3)nc(-c3ccon3)nc2s1 [Example 459, 2-(isoxazol-3-yl)-6-methyl-N-(3-(4-(5-(trifluoromethoxy)pyridin-2-yl)phenyl)propyl)thieno[2,3-d]pyrimidin-4-amine] | 43
Cc1cc2c(NCCCc3ccc(OC(F)(F)F)cc3)nc(-c3ccncn3)nc2s1 [Example 79, 6-methyl-2-(pyrimidin-4-yl)-N-(3-(4-(trifluoromethoxy)phenyl)propyl)thieno [2,3-d]pyrimidin-4-amine] | 480
Cc1cc2c(NCCCc3ccc(-c4cnccn4)cc3)nc(-c3ccoc3)nc2s1 [Example 391, 2-(furan-3-yl)-6-methyl-N-(3-[4-(pyrazin-2-yl)phenyl]propyl) thieno[2,3-d]pyrimidin-4-amine] | 62
CCc1nc(NCCCc2ccc(-c3cccc(OC(F)(F)F)c3)cc2)c2cc(C)sc2n1 [Example 280] | 140
Cc1cc2c(N[C@@H]3C[C@H]3c3ccc(F)c(F)c3)nc(-c3ccncc3)nc2s1 [Example 47, N-((1R,2S)-2-(3,4-difluorophenyl)cyclopropyl)-6-methyl-2-(pyridin-4-yl)thieno[2,3-d]pyrimidin-4-amine] | > 8800
Cc1cc2c(NCCCc3ccc(-c4ccc(OC(F)(F)F)cc4)cc3)nc(-c3cn(C)cn3)nc2s1 [Example 443, 6-methyl-2-(1-methyl-1H-imidazol-4-yl)-N-(3-(4′-(trifluoromethoxy)-[1,1′-biphenyl]-4-yl)propyl)thieno[2,3-d]pyrimidin-4-amine] | 300
